Data taken from ChEMBL document CHEMBL3421538, “Structure-activity relationships and molecular studies of novel arylpiperazinylalkyl purine-2,4-diones and purine-2,4,8-triones with antidepressant and anxiolytic-like activity” (Eur J Med Chem, 2015).

Experiments:
[1] = molecular target: D(3) dopamine receptor (Homo sapiens) (UniProt P35462); assay: Displacement of [3H]N-methylspiperone from dopamine D3 receptor (unknown origin) assessed as total radioligand binding at 1 uM incubated for 60 mins by microbeta plate reader based method
[2] = molecular target: D(3) dopamine receptor (Homo sapiens) (UniProt P35462); assay: Displacement of [3H]N-methylspiperone from dopamine D3 receptor (unknown origin) assessed as total radioligand binding at 1.66 x 10^-7 M incubated for 60 mins by microbeta plate reader based method
[3] = molecular target: T1, 5-hydroxytryptamine receptor 1A (Rattus norvegicus) (UniProt P19327); assay: Displacement of [3H]8-OH-DPAT from rat hippocampus 5-HT1A receptor assessed as total radioligand binding at 1 uM incubated for 20 mins by microbeta plate reader based method
T1 sequence (whole entry): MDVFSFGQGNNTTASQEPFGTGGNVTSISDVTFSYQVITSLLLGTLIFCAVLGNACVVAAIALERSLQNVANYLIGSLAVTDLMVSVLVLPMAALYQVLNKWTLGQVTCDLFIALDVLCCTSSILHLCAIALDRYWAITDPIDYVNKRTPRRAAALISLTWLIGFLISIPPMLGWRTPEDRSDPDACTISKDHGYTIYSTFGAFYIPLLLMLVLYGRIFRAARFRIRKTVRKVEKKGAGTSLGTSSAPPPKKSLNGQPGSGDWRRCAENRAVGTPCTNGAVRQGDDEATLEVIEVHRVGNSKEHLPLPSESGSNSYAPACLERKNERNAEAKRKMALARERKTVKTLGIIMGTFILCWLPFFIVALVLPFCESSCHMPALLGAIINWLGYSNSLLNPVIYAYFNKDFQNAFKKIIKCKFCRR

[4] = molecular target: T1, 5-hydroxytryptamine receptor 1A (Rattus norvegicus); assay: Displacement of [3H]8-OH-DPAT from rat hippocampus 5-HT1A receptor assessed as total radioligand binding at 1.66 x 10^-7 M incubated for 20 mins by microbeta plate reader based method
[5] = molecular target: T2, 5-hydroxytryptamine receptor 6 (Homo sapiens, UniProt P50406); assay: Displacement of [3H]LSD from human recombinant 5-HT6 receptor expressed in HEK293 cells incubated for 60 mins by microbeta plate reader based method; assay type: cell-based
[6] = molecular target: T3, 5-hydroxytryptamine receptor 1A (Rattus norvegicus, UniProt P19327); assay: Displacement of [3H]8-OH-DPAT from rat hippocampus 5-HT1A receptor incubated for 20 mins by microbeta plate reader based method
T3 sequence (P19327 whole entry): T1 sequence (whole entry)

D(2) dopamine receptor = D(2) dopamine receptor (Homo sapiens, UniProt P14416); assay: Displacement of [3H]N-methylspiperone from human recombinant dopamine D2 receptor expressed in CHOK1 cells incubated for 60 mins by microbeta plate reader based method; assay type: cell-based, CHO-K1
[7] = molecular target: 5-hydroxytryptamine receptor 7 (Homo sapiens, UniProt P34969); assay: Displacement of [3H]LSD from human recombinant 5-HT7 receptor expressed in CHOK1 cells incubated for 60 mins by microbeta plate reader based method; assay type: cell-based, CHO-K1
[8] = molecular target: T2, 5-hydroxytryptamine receptor 6; assay: Displacement of [3H]LSD from human recombinant 5-HT6 receptor expressed in HEK293 cells assessed as total radioligand binding at 1.66 x 10^-7 M incubated for 60 mins by microbeta plate reader based method; assay type: cell-based
[9] = molecular target: T2, 5-hydroxytryptamine receptor 6; assay: Displacement of [3H]LSD from human recombinant 5-HT6 receptor expressed in HEK293 cells assessed as total radioligand binding at 1 uM incubated for 60 mins by microbeta plate reader based method; assay type: cell-based
[10] = Selectivity index, ratio of Ki for rat hippocampus 5-HT1A receptor to Ki for human recombinant 5-HT7 receptor
Mus musculus [11] = assay: Anxiolytic-like activity in Swiss mouse assessed as increase in number of punished crossings measured during 60 seconds period at 2.5 mg/kg, ip by four-plate test; assay type: functional; details: route intraperitoneal
Mus musculus [12] = assay: Anxiolytic-like activity in Swiss mouse assessed as increase in number of punished crossings measured during 60 seconds period at 5 mg/kg, ip by four-plate test; assay type: functional; details: route intraperitoneal

D(2) dopamine receptor, sequence (P14416 whole entry): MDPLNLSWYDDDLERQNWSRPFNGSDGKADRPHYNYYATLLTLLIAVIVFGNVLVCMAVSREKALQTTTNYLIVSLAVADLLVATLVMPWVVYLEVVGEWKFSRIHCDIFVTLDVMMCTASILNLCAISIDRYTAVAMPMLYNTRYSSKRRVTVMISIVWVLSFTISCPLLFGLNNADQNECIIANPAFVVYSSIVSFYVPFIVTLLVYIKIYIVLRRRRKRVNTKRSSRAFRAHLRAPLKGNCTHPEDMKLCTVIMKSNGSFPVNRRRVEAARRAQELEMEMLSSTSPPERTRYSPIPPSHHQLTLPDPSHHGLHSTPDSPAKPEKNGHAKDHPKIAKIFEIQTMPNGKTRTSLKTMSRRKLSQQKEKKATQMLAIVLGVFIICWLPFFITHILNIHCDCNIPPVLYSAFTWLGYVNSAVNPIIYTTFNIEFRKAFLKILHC
D(3) dopamine receptor (Homo sapiens), sequence (P35462 whole entry): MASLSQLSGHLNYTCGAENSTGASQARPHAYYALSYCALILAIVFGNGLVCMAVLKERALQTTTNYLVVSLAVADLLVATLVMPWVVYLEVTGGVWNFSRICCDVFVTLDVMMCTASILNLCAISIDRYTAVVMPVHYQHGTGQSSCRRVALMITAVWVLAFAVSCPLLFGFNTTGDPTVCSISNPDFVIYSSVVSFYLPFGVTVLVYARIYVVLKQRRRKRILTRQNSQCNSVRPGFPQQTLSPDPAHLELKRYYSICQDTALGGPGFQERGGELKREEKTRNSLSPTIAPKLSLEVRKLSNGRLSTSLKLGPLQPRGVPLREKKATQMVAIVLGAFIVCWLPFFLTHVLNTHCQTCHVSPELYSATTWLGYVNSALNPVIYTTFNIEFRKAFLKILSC
5-hydroxytryptamine receptor 7, sequence (P34969 whole entry): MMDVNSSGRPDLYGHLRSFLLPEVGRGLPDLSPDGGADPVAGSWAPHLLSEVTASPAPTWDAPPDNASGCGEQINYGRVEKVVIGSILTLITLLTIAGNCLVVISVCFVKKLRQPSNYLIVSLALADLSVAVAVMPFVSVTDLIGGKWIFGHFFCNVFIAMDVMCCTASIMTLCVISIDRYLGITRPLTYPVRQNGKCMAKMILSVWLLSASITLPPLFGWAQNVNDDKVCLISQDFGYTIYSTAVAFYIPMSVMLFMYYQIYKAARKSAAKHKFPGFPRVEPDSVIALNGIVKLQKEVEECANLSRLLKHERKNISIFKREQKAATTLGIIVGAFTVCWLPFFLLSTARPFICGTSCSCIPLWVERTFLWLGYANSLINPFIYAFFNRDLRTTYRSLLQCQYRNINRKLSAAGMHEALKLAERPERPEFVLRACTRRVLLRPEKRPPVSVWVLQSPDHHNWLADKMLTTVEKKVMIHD
T2 sequence (P50406 whole entry): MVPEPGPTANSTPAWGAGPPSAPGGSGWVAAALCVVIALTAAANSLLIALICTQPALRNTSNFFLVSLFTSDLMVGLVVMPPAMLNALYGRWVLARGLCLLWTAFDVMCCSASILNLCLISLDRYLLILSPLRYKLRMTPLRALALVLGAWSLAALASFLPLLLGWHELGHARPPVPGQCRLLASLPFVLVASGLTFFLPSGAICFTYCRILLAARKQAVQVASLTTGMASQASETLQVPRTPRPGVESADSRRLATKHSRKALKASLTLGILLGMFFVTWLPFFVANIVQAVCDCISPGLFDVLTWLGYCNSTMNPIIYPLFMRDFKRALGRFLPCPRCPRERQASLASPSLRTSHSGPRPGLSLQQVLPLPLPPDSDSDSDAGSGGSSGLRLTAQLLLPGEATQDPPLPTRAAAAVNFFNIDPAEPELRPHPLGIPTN

| SMILES | Activity [1] [%] | Activity [2] [%] | Activity [3] [%] | Activity [4] [%] | Ki [5] [nM] | Ki [6] [nM] | Ki (D(2) dopamine receptor) [nM] | Ki [7] [nM] | Activity [8] [%] | Activity [9] [%] | Ratio Ki [10] | Activity (Mus musculus [11]) [%] | Activity (Mus musculus [12]) [%] |
| --- | --- | --- | --- | --- | --- | --- | --- | --- | --- | --- | --- | --- | --- |
| Cc1cc2c(s1)Nc1ccccc1N=C2N1CCN(C)CC1 | 10 | 24 | – | – | – | – | – | – | – | – | – | – | – |
| CC[C@@H](CO)NC(=O)[C@@H]1C=C2c3cccc4c3c(cn4C)C[C@H]2N(C)C1 | – | – | 11 | 18 | – | – | – | – | – | – | – | – | – |
| Cn1c(=O)c2c(nc3n(CCCCCN4CCN(c5ccc(Cl)cc5)CC4)c(=O)ccn23)n(C)c1=O | 92 | 99 | – | – | 839 | 80 | 215 | > 1000 | – | – | – | – | – |
| Cn1c(=O)c2c(nc3n(CCCCN4CCN(c5ccc(Cl)c(Cl)c5)CC4)ccn23)n(C)c1=O | 0 | 31 | 9 | 51 | – | – | – | – | 91 | 67 | – | – | – |
| Cn1c(=O)c2c(nc3n(CCCCCN4CCN(c5ccccc5O)CC4)c(=O)ccn23)n(C)c1=O | 46 | 67 | – | – | > 1000 | 2 | 340 | 473 | – | – | – | – | – |
| Cc1cccc(N2CCN(CCCCn3ccn4c5c(=O)n(C)c(=O)n(C)c5nc34)CC2)c1C | 13 | 47 | 9 | 48 | – | – | – | – | 91 | 62 | – | – | – |
| Cc1cn2c3c(=O)n(C)c(=O)n(C)c3nc2n1CCCCN1CCN(c2ccc(Cl)cc2)CC1 | – | – | – | – | 1460 | 38 | 123 | 361 | – | – | 0.1 | – | – |
| Cn1c(=O)c2c(nc3n(CCCCCN4CCN(c5ccc(Cl)c(Cl)c5)CC4)c(=O)ccn23)n(C)c1=O | 61 | 96 | 52 | 86 | – | – | – | – | 100 | 79 | – | – | – |
| CN1C(=O)CN=C(c2ccccc2)c2cc(Cl)ccc21 [DIAZEPAM] | – | – | – | – | – | – | – | – | – | – | – | 52 | 57 |
| Cn1c(=O)c2c(nc3n(CCCCCN4CCN(c5ccccc5O)CC4)ccn23)n(C)c1=O | 3 | 69 | 0 | 57 | – | 7 | 265 | 230 | 76 | 67 | 0.03 | – | – |
| Cn1c(=O)c2c(nc3n(CCCCN4CCN(c5ccc(Cl)cc5)CC4)c(-c4ccccc4)cn23)n(C)c1=O | – | – | – | – | 447 | 46 | 23 | 37 | – | – | 1.2 | – | – |
| Cn1c(=O)c2c(nc3n(CCCCN4CCN(c5ccc(Cl)c(Cl)c5)CC4)c(=O)ccn23)n(C)c1=O | 98 | 99 | 84 | 97 | – | – | – | – | 100 | 67 | – | – | – |
| Cn1c(=O)c2c(nc3n(CCCCN4CCN(c5ccccc5O)CC4)c(=O)ccn23)n(C)c1=O | 26 | 84 | 79 | 97 | – | – | – | – | 100 | 100 | – | – | – |
| Cn1c(=O)c2c(nc3n(CCCCCN4CCN(c5ccc(Cl)cc5)CC4)ccn23)n(C)c1=O | – | – | – | – | 1590 | 73 | 259 | 3640 | – | – | 0.02 | – | – |
| Cc1cn2c3c(=O)n(C)c(=O)n(C)c3nc2n1CCCCN1CCN(c2ccc(Cl)c(Cl)c2)CC1 | 64 | 90 | 13 | 74 | – | – | – | – | 110 | 46 | – | – | – |
| Cc1cccc(N2CCN(CCCCn3c(=O)ccn4c5c(=O)n(C)c(=O)n(C)c5nc34)CC2)c1C | 73 | 100 | 42 | 85 | – | – | – | – | 100 | 94 | – | – | – |
| Cc1cn2c3c(=O)n(C)c(=O)n(C)c3nc2n1CCCCCN1CCN(c2ccccc2O)CC1 | 71 | 85 | 0 | 52 | – | 12 | 468 | 124 | 84 | 77 | 0.1 | – | – |
| Cn1c(=O)c2c(nc3n(CCCCN4CCN(c5ccccc5O)CC4)ccn23)n(C)c1=O | 69 | 67 | 7 | 40 | – | 2 | 700 | 1360 | 99 | 90 | 0.002 | – | – |
| Cn1c(=O)c2c(nc3n(CCCCN4CCN(c5ccc(Cl)cc5)CC4)c(=O)ccn23)n(C)c1=O | 52 | 96 | – | – | 86 | 58 | 68 | 61 | – | – | – | – | – |
| Cc1cn2c3c(=O)n(C)c(=O)n(C)c3nc2n1CCCCCN1CCN(c2ccc(Cl)cc2)CC1 | – | – | – | – | 837 | 62 | 106 | 691 | – | – | 0.09 | – | – |
| CSc1ccc2c(c1)C(N1CCN(C)CC1)Cc1ccccc1S2 (stereo not given) | – | – | – | – | – | – | – | – | 3 | 1 | – | – | – |
| Cc1cn2c3c(=O)n(C)c(=O)n(C)c3nc2n1CCCCN1CCN(c2ccccc2O)CC1 | 67 | 86 | 8 | 44 | – | 2 | 430 | 510 | 90 | 90 | 0.003 | – | – |
| Cn1c(=O)c2c(nc3n(CCCCCN4CCN(c5ccc(Cl)c(Cl)c5)CC4)ccn23)n(C)c1=O | 16 | 67 | 3 | 78 | – | – | – | – | 90 | 62 | – | – | – |
| Cc1cccc(N2CCN(CCCCCn3c(=O)ccn4c5c(=O)n(C)c(=O)n(C)c5nc34)CC2)c1C | 67 | 83 | 50 | 88 | – | – | – | – | 85 | 59 | – | – | – |
